Experimental data from patent US20120190687A1, “Pyrazinylpyrazoles” (Bayer CropScience Ag, priority 2009, published 2012).

Experiments:
[1] = logP by reversed-phase HPLC (EEC Directive 79/831 Annex V.A8); assay type: physicochemical
Excerpt: [table] The calibration is effected with unbranched alkan-2-ones (having 3 to 16 carbon atoms) with known log P values (log P values determined on the basis of the retention times by linear interpolation between two successive alkanones).

Phaedon cochleariae = experiment: Phaedon test (PHAECO spray treatment); assay type: in vivo; conditions: 500 g/ha, Chinese cabbage discs, after 7 days
Description: Phaedon Test ([…] Spray Treatment) Solvent: 78.0 parts by weight of acetone • • 1.5 parts by weight of dimethylformamide Emulsifier: 0.5 part by weight of alkylaryl polyglycol ether To prepare an appropriate active ingredient preparation, 1 part by weight of active ingredient is mixed with the stated amounts of solvent and emulsifier, and the concentrate is diluted with emulsifier-containing water to the desired concentration. Discs of Chinese cabbage (Brassica pekinensis) are sprayed with an active ingredient preparation of the desired concentration and, after drying, populated with larvae of the mustard beetle (Phaedon cochleariae). After 7 days, the efficacy in % is determined. 100% means that all beetle larvae have been killed; 0% means that none of the beetle larvae have been killed.

Spodoptera frugiperda = Spodoptera frugiperda test (SPODFR spray treatment); assay type: in vivo; conditions: 500 g/ha, maize leaf discs, after 7 days
Description: Spodoptera frugiperda Test (SPODFR Spray Treatment) Solvent: 78.0 parts by weight of acetone • • 1.5 parts by weight of dimethylformamide Emulsifier: 0.5 part by weight of alkylaryl polyglycol ether To prepare an appropriate active ingredient preparation, 1 part by weight of active ingredient is mixed with the stated amounts of solvent and emulsifier, and the concentrate is diluted with emulsifier-containing water to the desired concentration. Discs of maize leaves (Zea mays) are sprayed with an active ingredient preparation of the desired concentration and, after drying, populated with caterpillars of the armyworm (Spodoptera frugiperda). After 7 days, the efficacy in % is determined. 100% means that all caterpillars have been killed; 0% means that none of the caterpillars have been killed.

Tetranychus urticae = experiment: Tetranychus test, OP-resistant (TETRUR spray treatment); assay type: in vivo; conditions: 500 g/ha, bean leaf discs, after 6 days
Description: Tetranychus Test, OP-resistant (TETRUR Spray Treatment)
Solvent: 78.0 parts by weight of acetone • • 1.5 parts by weight of dimethylformamide
Emulsifier: 0.5 part by weight of alkylaryl polyglycol ether
To prepare an appropriate active ingredient preparation, 1 part by weight of active ingredient is mixed with the stated amounts of solvent and emulsifier, and the concentrate is diluted with emulsifier-containing water to the desired concentration. Discs of bean leaves (Phaseolus vulgaris) infested by all stages of the red spider mite (Tetranychus urticae) are sprayed with an active ingredient preparation of the desired concentration. After 6 days, the efficacy in % is determined. 100% means that all spider mites have been killed; 0% means that none of the spider mites have been killed.

[2] = * LC-MS, acidic range, pH 2.7, 0.1% aqueous formic acid / acetonitrile
[3] = ** acidic range, pH 2.3, 0.1% aqueous phosphoric acid / acetonitrile

| SMILES | log P [1, 2] | efficacy (Phaedon cochleariae) | further results |
| --- | --- | --- | --- |
| CCOc1nccnc1-n1nc(C(F)(F)F)c(-c2cc(Cl)cc(C(F)(F)F)c2)c1N(Cc1ccccc1)Cc1ccccc1 [Ex. 34] | 7* |  |  |
| C=C(C)CN(CC(=C)C)c1c(-c2cc(Cl)cc(C(F)(F)F)c2)c(C(F)(F)F)nn1-c1nccnc1OC [compound 104] | 5.22* |  |  |
| CN(C)c1nccnc1-n1nc(C(F)(F)F)c(-c2cc(Cl)cc(C(F)(F)F)c2)c1N [Ex. 25] | 4.28* |  |  |
| COc1nccnc1-n1nc(C(F)(F)F)c(-c2cc(Cl)cc(C(F)(F)F)c2)c1N(Cc1ccccc1)Cc1ccccc1 [Ex. 32] | 6.67* |  |  |
| COc1cc(-c2c(C(F)(F)F)nn(-c3nccnc3OC)c2N)cc(C(F)(F)F)c1OC(C)C [Ex. 126] | 4.28* |  |  |
| Nc1c(-c2cc(Cl)cc(C(F)(F)F)c2)c(C(F)(F)F)nn1-c1nccnc1-n1ccnc1 [Ex. 44] | 2.76* | 100% | efficacy (Spodoptera frugiperda): 100% |
| COc1nccnc1-n1nc(C(F)(F)F)c(-c2ccc3c(c2)CCC(C)(C)O3)c1N [Ex. 145] | 3.68* | 100% |  |
| Cc1cnc(C)c(-n2nc(C(F)(F)F)c(-c3cc(Cl)cc(C(F)(F)F)c3)c2N)n1 [Ex. 24] | 4.56* |  |  |
| COc1nccnc1-n1nc(C(F)(F)F)c(-c2cc(SCC(F)(F)F)c(Cl)cc2Cl)c1N [Ex. 179] | 4.14* |  |  |
| COc1nccnc1-n1nc(C(F)(F)F)c(-c2cc(Cl)c(Cl)c([S+]([O-])CC(F)(F)F)c2)c1N (centres unmarked) [Ex. 182] | 3.69* |  |  |
| CNc1c(-c2cc(Cl)cc(C(F)(F)F)c2)c(C(F)(F)F)nn1-c1nccnc1OC [Ex. 106] | 4.51* |  |  |
| CCOc1cc(-c2c(C(F)(F)F)nn(-c3nccnc3OC)c2N)ccc1OCC(F)(F)F [Ex. 127] | 3.68* | 100% | efficacy (Tetranychus urticae): 90% |
| COc1nccnc1-n1nc(C(F)(F)F)c(-c2cc(Cl)c(Cl)c(SCC(F)(F)F)c2)c1N [Ex. 180] | 4.43* |  |  |
| CCOc1nccnc1-n1nc(C(F)(F)F)c(-c2cc(Cl)cc(C(F)(F)F)c2)c1NCc1ccc(OC)cc1 [Ex. 40] | 5.47* |  |  |
| COc1nccnc1-n1nc(C(F)(F)F)c(-c2cc(F)c(Cl)cc2Cl)c1N [Ex. 166] | 3.66* | 100% | efficacy (Tetranychus urticae): 90% |
| CS(=O)(=O)c1nccnc1-n1nc(C(F)(F)F)c(-c2cc(Cl)cc(C(F)(F)F)c2)c1N [Ex. 30] | 3.54* |  |  |
| COc1nccnc1-n1nc(C(F)(F)F)c(-c2cc(Cl)cc(C(F)(F)F)c2)c1NCc1ccc(Cl)cc1 [Ex. 39] | 5.51* |  |  |
| CC(C)Oc1nccnc1-n1nc(C(F)(F)F)c(-c2cc(Cl)cc(C(F)(F)F)c2)c1N [Ex. 13] | 4.84* | 83% |  |
| COc1nccnc1-n1nc(C(F)(F)F)c(-c2cc(Cl)c(Cl)c(C(F)(F)F)c2)c1N [Ex. 86] |  | 100% | log P [1, 3]: 4.47**; efficacy (Spodoptera frugiperda): 100% |
| Nc1c(-c2cc(Cl)cc(C(F)(F)F)c2)c(C(F)(F)F)nn1-c1cncc(Cl)n1 [Ex. 19] | 5.26* |  |  |
| C#CCN(CC#C)c1c(-c2cc(Cl)cc(C(F)(F)F)c2)c(C(F)(F)F)nn1-c1nccnc1OC [Ex. 105] | 4.91* |  |  |
| Nc1c(-c2cc(Cl)cc(C(F)(F)F)c2)c(C(F)(F)F)nn1-c1nccnc1-n1cc(F)cn1 [Ex. 45] | 4.24* |  |  |
| Nc1c(-c2cc(Cl)cc(C(F)(F)F)c2)c(C(F)(F)F)nn1-c1nccnc1Br [Ex. 129] | 4.27* |  |  |

| SMILES | log P [1, 2] | efficacy (Phaedon cochleariae) | further results |
| --- | --- | --- | --- |
| COc1nccnc1-n1nc(C(F)(F)F)c(-c2cc(Cl)cc(C(F)(F)F)c2)c1N(C)C [compound 107, 1-(3-methoxypyrazin-2-yl)-4-[3-chloro-5-(trifluoromethyl)phenyl]-3-(trifluoromethyl)-1H-pyrazole-5-dimethylamine] |  | 83% | chromatographic logP ([1]; reversed-phase HPLC column, * LC-MS, acidic range, pH 2.7, 0.1% aqueous formic acid / acetonitrile, read-out: log P): 5.11 |
| Nc1c(-c2cc(Cl)cc(C(F)(F)F)c2)c(C(F)(F)F)nn1-c1nccnc1Cl [Ex. 16] | 4.28* |  |  |
| COc1nccnc1-n1nc(C(F)(F)F)c(-c2ccc(Cl)c(SC)c2Cl)c1N [Ex. 165] | 4.14* |  |  |
| C[S+]([O-])c1nccnc1-n1nc(C(F)(F)F)c(-c2cc(Cl)cc(C(F)(F)F)c2)c1N (centres unmarked) [Ex. 29] | 3.29* |  |  |
| COc1nccnc1-n1nc(C(F)(F)F)c(-c2cc(C(F)(F)F)cc(Cl)n2)c1N [Ex. 55] | 4.54* |  |  |
| Nc1c(-c2cc(Cl)cc(C(F)(F)F)c2)c(C(F)(F)F)nn1-c1nccnc1C(F)(F)F [Ex. 130] | 4.57* | 100% | efficacy (Spodoptera frugiperda): 100% |
| COc1nccnc1-n1nc(C(F)(F)F)c(-c2ccc(N(C)C)c(Cl)c2)c1N [Ex. 122] | 3.19* | 100% | efficacy (Spodoptera frugiperda): 100% |
| Nc1c(-c2ccc(Cl)cc2)c(C(F)(F)F)nn1-c1nccnc1Cl [Ex. 7] | 3.59* |  |  |
| Cc1nccnc1-n1nc(C(F)(F)F)c(-c2cc(Cl)cc(C(F)(F)F)c2)c1N [Ex. 23] | 4.32* | 100% | efficacy (Tetranychus urticae): 100% |
| CCOc1nccnc1-n1nc(C(F)(F)F)c(-c2cc(Cl)cc(C(F)(F)F)c2)c1N(Cc1ccc(Cl)cc1)Cc1ccc(Cl)cc1 [Ex. 36] |  |  | log P [1, 3]: 7.36** |
| N#Cc1nccnc1-n1nc(C(F)(F)F)c(-c2cc(Cl)cc(C(F)(F)F)c2)c1N [Ex. 27] | 3.93* | 100% |  |
| CCOc1nccnc1-n1nc(C(F)(F)F)c(-c2cc(Cl)cc(C(F)(F)F)c2)c1N(Cc1ccc(OC)cc1)Cc1ccc(OC)cc1 [Ex. 43] | 6.57* | 100% | efficacy (Spodoptera frugiperda): 100% |
| COc1nccnc1-n1nc(C(F)(F)F)c(-c2cc(Cl)cc(C(F)(F)F)c2)c1N(Cc1ccc(Cl)cc1)Cc1ccc(Cl)cc1 [Ex. 38] | 7.11* |  |  |
| COc1cc(-c2c(C(F)(F)F)nn(-c3nccnc3OC)c2N)ccc1OCC(F)(F)F [Ex. 125] | 3.07* | 100% | efficacy (Tetranychus urticae): 90% |
| Nc1c(-c2cc(Cl)cc(C(F)(F)F)c2)c(C(F)(F)F)nn1-c1nccnc1-n1cccn1 [Ex. 31] | 3.94* |  |  |
| Nc1c(-c2ccc(Cl)c(Cl)c2)c(C(F)(F)F)nn1-c1nccnc1Cl [Ex. 1] | 4.02* |  | log P [1, 3]: 3.99**; |
| COc1ccc(CN(Cc2ccc(OC)cc2)c2c(-c3cc(Cl)cc(C(F)(F)F)c3)c(C(F)(F)F)nn2-c2nccnc2OC)cc1 [Ex. 42] | 6.25* |  |  |
| CCOc1nccnc1-n1nc(C(F)(F)F)c(-c2cc(Cl)cc(C(F)(F)F)c2)c1NCc1ccccc1 [Ex. 35] | 5.62* |  | efficacy (Tetranychus urticae): 90% |
| CCOc1nccnc1-n1nc(C(F)(F)F)c(-c2cc(Cl)cc(C(F)(F)F)c2)c1NCc1ccc(Cl)cc1 [Ex. 37] | 5.84* |  |  |
| COc1cc(-c2c(C(F)(F)F)nn(-c3nccnc3OC)c2N)cc(Cl)c1OCC(F)(F)F [Ex. 134] | 3.88* | 100% | efficacy (Spodoptera frugiperda): 100% |
| Nc1c(-c2cc(Cl)cc(Cl)c2)c(C(F)(F)F)nn1-c1nccnc1Cl [Ex. 56] | 4.16* |  |  |
| C=C(C)CNc1c(-c2cc(Cl)cc(C(F)(F)F)c2)c(C(F)(F)F)nn1-c1nccnc1OC [Ex. 96] |  |  | efficacy (Tetranychus urticae): 100% |
| CCOc1cc(-c2c(C(F)(F)F)nn(-c3nccnc3OC)c2N)cc(Br)c1OCC(F)(F)F [Ex. 140] | 4.3* | 100% | efficacy (Spodoptera frugiperda): 100% |
